# Measured values from publication doi:10.1101/2025.02.19.639194v1, “Bioinformatics analysis identifies sequence determinants of enzymatic activity for the PHARC associated lipase ABHD12” (biorxiv, 2025).
# Molecular target: T1, CG15111 (Drosophila melanogaster, UniProt A1ZBH2)
# T1 construct: gene Dmel\CG15111; full-length from adult fly cDNA, C-terminal FLAG tag, pRmHa3 vector, membrane fraction of transfected S2 cells
# T1 sequence (A1ZBH2 1-393): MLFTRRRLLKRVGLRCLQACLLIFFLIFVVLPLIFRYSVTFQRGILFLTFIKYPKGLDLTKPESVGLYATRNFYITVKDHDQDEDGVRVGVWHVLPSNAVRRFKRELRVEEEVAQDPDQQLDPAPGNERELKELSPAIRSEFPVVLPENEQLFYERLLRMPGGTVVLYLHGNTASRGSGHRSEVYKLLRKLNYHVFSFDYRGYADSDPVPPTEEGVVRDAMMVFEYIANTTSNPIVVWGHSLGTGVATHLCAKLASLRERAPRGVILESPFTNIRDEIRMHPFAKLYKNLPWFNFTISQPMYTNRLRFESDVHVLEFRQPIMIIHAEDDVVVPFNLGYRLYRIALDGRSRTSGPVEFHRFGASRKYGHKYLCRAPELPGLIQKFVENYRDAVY
# Assay: LC-MS lyso-PS lipase assay, release of C17:[…] FFA
# Assay type: biochemical
# Details: 100 uM substrate, 20 ug membrane fraction of S2 cells
compound,measurement,value
CCCCCC/C=C\CCCCCCCCC(=O)OC[C@@H](O)COP(=O)(O)OC[C@H](N)C(=O)O [C17:1 lyso-PS],"LC-MS lyso-PS lipase assay, release of C17:1 FFA",WT CG15111 had robust lyso-PS lipase activity
